From patent US12458660B2, “Methods of attenuating an immune response by inhibition of BFL1” (CHILDREN'S HOSPITAL MEDICAL CENTER, priority 2018, dated 2025)
Where two headings read alike, the source gives them in different places. Values belong to the compound of their own block, whether it stands above or below them.

Experiments:
[1] = test system: chorio-decidua neutrophils; assay: Chorio-decidua neutrophil survival in culture (Annexin V-/7aad- by flow cytometry); format: cell-based, Rhesus
Experimental: Importantly, Bcl2A1 was specifically expressed by CD neutrophils, and rhIL1ra decreased BCL2A1+ neutrophils (FIG. 9B). Neutrophil expression of Bcl2A1 could be constitutive or induced. Since control CAD tissue have very few neutrophils, we compared expression of Bcl2A1 and other important mediators of apoptosis in CD neutrophils vs. blood neutrophils from the same IA LPS-exposed animals.
Neutrophils were cultured overnight (16 h) at 37° C., in 5% CO2 in DMEM:F12 containing 10% fetal bovine serum, 100 IU/ml penicillin, 100 IU/ml streptomycin, and 2 mmol/L glutamine, in 24-well plate ([…] were stained with a cocktail of Abs as above for immunophenotyping and analyzed by flow cytometry within 30 minutes and cell survival was indicated as percentage of Annexin V^−/7aad^− cells (BD Bioscience).
The chosen doses were optimum based on dose response curves that were generated using blood neutrophils. ABT737 concentrations≥1 μM were toxic to the cells (not shown).

[2] = target: T1, BCL2A1 (A1) - NOXA binding (Mus musculus, UniProt Q07440, C113S/P104K); assay: Competition fluorescence polarization assay, displacement of FITC-labeled mNOXA peptide from A1; conditions: for inhibition of NOXA binding in combination: with NSC-15508
T1 construct: A1 residues 1-152 (P104K, C113S) were expressed in the BL21 strain of Escherichia coli; hexa-His-MBP (cleaved yes); made in house; host or cells: Escherichia coli BL21
T1 sequence (Q07440 1-152 P104K/C113S): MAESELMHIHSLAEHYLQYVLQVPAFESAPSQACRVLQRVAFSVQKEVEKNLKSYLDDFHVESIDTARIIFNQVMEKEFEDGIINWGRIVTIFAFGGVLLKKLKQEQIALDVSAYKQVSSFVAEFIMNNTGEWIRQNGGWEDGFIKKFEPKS
Experimental: Representative compounds were additionally tested for inhibition of BH3 binding through competition-based fluorescence polarization (FP) assays. These assays were carried out using fluorescently labeled NOXA peptide which binds within the BH3-binding groove. The FP assay measures the tumbling rate of the labeled NOXA peptide. When NOXA is bound to A1, its rate of tumbling is low (and FP is high), whereas an effective inhibitor compound will displace NOXA, causing a fast rate of tumbling (and low FP value). Initially, a single high-dose experiment was performed with each compound using 100 μM of compound with BCL2A1 and FITC-NOXA, to observe the relative inhibition of the A1-NOXA interaction (FIG. 17B).
These compounds and any that were three standard deviations or more above the thermal shift controls in the DSF assays, along with those that were initially derived from early compounds with reasonable IC50 values, were tested in a dose-response experiment. To this end, 30 putative P2 inhibitors and 44 putative P4 inhibitors had their IC50 values determined. Of the dose responses, there was a surprising enrichment of putative P4 inhibitors among those that had IC50 values less than 50 μM. […] The following linear equation was used in the calculations (Tallarida et al., 2011),
Compounds were additionally tested for specificity of binding by displacement of FITC-labeled mouse NOXA (mNoxa; Peptide 2.0) peptide via fluorescence polarization assay (FP). FP assays were performed in two steps: single-point high-concentration compounds and dose response of fluorescence polarization hits. A1 was added at 3 μM to 100 μM of each compound in 20 mM Tris pH 7, 500 mM NaCl, 0.005% Tween-20 buffer. After addition of 375 nM labeled mNOXA, 96-well plates were incubated overnight at 20° C. in the dark to achieve equilibrium before fluorescence polarization was measured with a Biotek Synergy H2. Autofluorescent compounds and fluorescent quenching compounds were corrected via ratiometric correction as described by Shapiro et al., 2009.
Dose response curves were measured by adding 3 μM A1 to a serial two-fold dilution series of each compound ranging from 400 μM to 781 nM in 20 mM Tris pH 7, 500 mM NaCl, 0.005% Tween-20 buffer. Some compounds were further tested to assess the accuracy of these two-fold dilutions with serial 1.33-fold dilutions. A1, compounds, buffer and lastly, 375 nM FITC-labeled mNOXA were added to each well and incubated in the dark at 20° C. overnight to achieve equilibrium, followed by measurement of polarization. All dose responses were performed in triplicate.

[3] = test system: IA LPS-induced chorioamnionitis (IL-1 signaling); assay: LPS-induced chorioamnionitis Rhesus monkey model with IL-1R blockade; format: in vivo, Rhesus macaques (Macaca mulatta)
Source text: We utilized the LPS-induced chorioamnionitis Rhesus monkey model system to study the pathogenesis of IUI, and particularly the role of IL-1 signaling in chorioamnionitis. A human recombinant IL-1 receptor antagonist (referred to herein as “hIL-lra” or by its generic name, “anakinra”) which inhibits both IL-1β and IL-lα signaling was used to experimentally block IL-1 signaling.
(§1) All animal procedures were approved by the Institutional Animal Care and Use Committee at the University of California, Davis. Normally cycling, adult female rhesus macaques (Macaca mulatta) (n=43) were time mated. At ˜130 d of gestation (˜80% of term gestation), the pregnant rhesus received either 1 ml saline solution (n=16) or 1 mg LPS (Sigma-Aldrich, St. Louis, MO) in 1 ml saline solution by ultrasound-guided IA injection. Dams were surgically delivered 16 h (n=13) or 48 h (n=8) later. Multiparous macaques and their fetuses were similar in demographics (Table 4). After delivery, fetuses were euthanized with pentobarbital, and fetal tissues were collected. There were no spontaneous deaths or preterm labor in the animals. IL-1 signaling was blocked by recombinant human IL-1R antagonist (rhIL-1RA; Anakinra Sobi, Stockholm, Sweden) given to the pregnant monkey IA (50 mg) and subcutaneous (100 mg) 1 and 3 h before LPS, as previously described (Rueda et al., 2016; FIG. 3).
Both Rhesus and human purified decidua cell suspensions were prepared as previously described (Presicce et al., 2015). Briefly, extra-placental membranes were dissected away from the placenta. Decidua cells were scraped from the amnion-chorion. Amnion was then separated from chorion and flash-frozen for protein and RNA studies. Decidua tissue was washed, and digested with Dispase II (Life Technologies, Grand Island, NY) plus collagenase A (Roche, Indianapolis, IN) for 30 min followed by DNase I (Roche) treatment for another 30 min. Cell suspensions were filtered subjected to Red blood cell lysis and prepared for flow cytometry. Viability was >90% by trypan blue exclusion test.
Commercially available monoclonal antibodies (mAbs) were used for multiparameter flow cytometry (LSR Fortessa 2, BD Biosciences, San Diego, CA) and immunophenotyping was done on fresh chorio-decidua cell suspensions, except for T-cell phenotyping, which was done on cultured cells since cell isolation procedure down-regulates CD4/8 expression. Chorio-decidua cell TNFα expression was measured by flow cytometry with anti-TNF Ab (Cytofix/Cytoperm; BD Bioscience). To measure cytokine expression induced by in vivo exposures, flow cytometry was done on cells immediately after isolation without any stimulation and/or intracellular blockers. For all protocols, cells were treated with […] human immunoglobulin G (IgG) to block Fc receptors, stained for surface markers for 30 min at 4° C. in PBS, washed, and fixed in fixative stabilizing buffer (BD Bioscience). All antibodies were titrated for optimal detection of positive populations and mean fluorescence intensity. At least 500,000 events were recorded for each sample. Doublets were excluded based on forward scatter properties, and dead cells were excluded using LIVE/DEAD Fixable Aqua dead cell stain (Life Technologies). Unstained and negative biological population were used to determine positive staining for each marker. Data were analyzed using FlowJo version 9.5.2 software (TreeStar Inc., Ashland, OR).
Immunofluorescence was performed as previously described (Presicce et al., 2015). Briefly, paraffin embedded Rhesus fetal membrane sections were sectioned, subjected to antigen-retrieval by microwave boiling in citrate buffer followed by incubation with either anti-human CXCL8 (product G265-8; 1:25 dilution; BD Biosciences), or BCL2A1 (product b450; 1:50 dilution; LSBio, Seattle, WA), in 10% normal horse serum/0.2% Tween-20 at 4° C. overnight. […]

[4] = Anakinra (rhIL-1ra) pharmacokinetics in pregnant Rhesus macaques, human IL-1ra ELISA; format: in vivo, Rhesus macaques (Macaca mulatta)
Experimental: Recombinant human IL-1 receptor antagonist (“Anakinra” or “rhIL 1ra”) was injected into the amniotic fluid (“AF”) and subcutaneously in the dams (FIG. 3A). […] The low (0.2%) diffusion of Anakinra from maternal blood to amniotic fluid 2 h after maternal subcutaneous (SC) before the AF Anakinra dosing is notable. In addition, a slower clearance of Anakinra from the AF compared to maternal plasma is observed.
as §1
Cytokine/chemokine concentrations in AF, fetal, and maternal plasma were determined by Luminex using non-human primate multiplex kits (Millipore). Lipids were extracted from the AF using methanol to measure Prostaglandins PGE2 (Oxford Biomedical Research, Oxford, MI) and PGF2a (Cayman Chemical, Ann Arbor, MI) concentrations. Anakinra (rhIL1ra) levels in AF, fetal, and maternal plasma were determined by human IL1ra/IL-1F3 Quantikine ELISA kit (R&D System, Minneapolis, […]). This kit has low cross-reactivity to Rhesus IL-1ra.

Compound: CN(C)CC[C@H](CSc1ccccc1)Nc1ccc(S(=O)(=O)NC(=O)c2ccc(N3CCN(Cc4ccccc4-c4ccc(Cl)cc4)CC3)cc2)cc1[N+](=O)[O-] [ABT-737]
frequency of chorio-decidua Annexin V-/7aad- (non-apoptotic) neutrophils ([1]; 0.1 µM, cultured 16 hr): did not show any significant effect | concentrations toxic to the cells ([1]; dose response curves generated using blood neutrophils, not shown): ≥ 1000 nM

Compound: Cc1cc(N)ccc1/N=N/c1ccc(/N=N/c2ccc3cc(S(=O)(=O)O)cc(S(=O)(=O)O)c3c2)c(C)c1 [Compound 1.002]
IC50 ([2]; P4 inhibitor 79711 in combination with P2 inhibitor 97318, read-out: IC50 upon P2 and P4 ligand binding): 6.3 µM | IC50 ([2]; compound alone, inhibition of A1-NOXA binding, read-out: IC50): 17.1 µM

Compound: rhIL1ra: human recombinant IL-1 receptor antagonist which inhibits both IL-1β and IL-1α signaling
LPS induced amniotic fluid concentration of PGE2 ([3]; ELISA of lipid extract): decreased | LPS-induced pIRAK1 in the amnion ([3]; IA LPS 16 h, immunoblot): decreased | expression of CSF3 in the amnion ([3]; IA LPS 16 h, mRNA): decreased | expression of CXCL8 in the amnion ([3]; IA LPS 16 h, mRNA): decreased | expression of IL6 in the amnion ([3]; IA LPS 16 h, mRNA): decreased | number (counts) of chorio-decidua neutrophils ([3]; IA LPS, FIG. 5B): to near controls levels | reduction of chorio-decidua neutrophil numbers ([3]; IA LPS, blocking IL-1R): ~90% | overall CD leukocyte counts ([3]; IA LPS, data not shown): decreased | CD16 expression in CD neutrophils ([3]; IA LPS, flow cytometry): to near control levels | CD63 expression in CD neutrophils ([3]; IA LPS, flow cytometry): to near control levels | chorio-decidua B-cell numbers ([3]; IA LPS, flow cytometry): to control levels | frequency of TNFα+ CD neutrophils ([3]; IA LPS, flow cytometry): reversed | neutrophil accumulation in the CD ([3]; IA LPS, flow cytometry): reversed | CAD expression of Bcl2A1 ([3]; LPS-exposed animals, quantitative PCR): reversed | BCL2A1+ neutrophils ([3]; chorio-decidua interface, cell count/HPF): decreased | IA LPS induced CD neutrophils expressing CXCL8 ([3]; immuno-histology): decreased | LPS induced amniotic fluid concentration of CXCL8 ([3]; multiplex ELISA): decreased | LPS induced amniotic fluid concentration of IL6 ([3]; multiplex ELISA): decreased | LPS induced amniotic fluid concentration of MCP1 ([3]; multiplex ELISA): decreased | diffusion from maternal blood to amniotic fluid ([4]; 2 h after maternal subcutaneous dose, before AF dosing): 0.2% | transfer to fetal plasma ([4]; 19 h level, trans-placental transfer): substantial transfer | elimination in the AF compared to maternal blood ([4]; amniotic fluid vs maternal blood): slower | concentrations in AF and maternal blood ([4]; both compartments): therapeutic concentrations

More lines, main results first:

additivity for inhibition of A1-Noxa binding, checkerboard assay ([2]; NSC-97318 (P2) with NSC-45195 (P4), wide range of concentrations): low level additivity | inhibition of NOXA binding in combination [2]: cooperative inhibition
Compound: Cc1cc(O)ccc1/N=N/c1ccc2cc(S(=O)(=O)O)cc(S(=O)(=O)O)c2c1 [Compound 1.003]

inhibition of NOXA binding in combination [2]: cooperative inhibition
Compound: Cc1cc(/N=N/c2ccc(/N=N/c3c(O)c(S(=O)(=O)O)cc4cc(S(=O)(=O)O)ccc34)cc2C)ccc1/N=N/c1ccc2cc(S(=O)(=O)O)cc(S(=O)(=O)O)c2c1 [Compound 1.004]
increase in inhibition relative to NSC-45195 ([2]; SAR comparison): roughly a two-fold increase in inhibition
